Measurements published in patent US5414001A, “Antineoplastic pyrrolo[4,3,2-de]quinolin-8(1H)-ones” (American Cyanamid Company, priority 1993, dated 1995).
Structures can show the parent of a compound that is named as a salt. Where two headings read alike, the source gives them in different places.

Legend:
CaCo2 / CX1 = conditions: human, Caco-2, 48 h
Method: The cytotoxic activity of the pyrrolo[4,3,2-de]quinolin-8(1H)-ones against a panel of >20 human tumor cell lines is determined using the Sulforhodamine B protein dye-binding colorimetric cytotoxicity assay (SRB) described by Skehan et al. (Journal National Cancer Institute 82:1107-1112, 1990), as modified by Monks et al., (Journal National Cancer Institute 83: 757-766, 1991). […] Positive controls (i.e., etoposide) are included in every experiment. Treatments are for 48 hours, after which cells are fixed in 10% trichloroacetic acid (10% final concentration), washed five times with deionized water and stained with SRB solution (0.4% in glacial acetic acid). Protein-bound stain is solubilized with 0.1 ml tris buffer and the adsorbance values are recorded with a microplate reader. Duplicate plates of cells are fixed with trichloroacetic acid at the time of drug addition to establish To values, as described by Monks et al. (JNCl, 83: 757-766, 1991). The effect of drug treatments over the five-long range of concentrations is calculated using the formula, T--To/C--To, to determine the IC50 values.
3) The ratio values for DDP/S; CaCo2/CX1; MIP/SW620, and; HCT15/SKBR3 refer to the IC50 value for resistant cell lines included in the tumor cell panel, divided by the IC50 value for corresponding drug sensitive cell lines. For example, DDP is a Cisplatin resistant ovarian carcinoma cell line, and S is the corresponding parent drug sensitive ovarian carcinoma cell line (A2780). […] CaCo2 is a slow growing non P-glycoprotein multidrug resistant colon carcinoma cell line. MIP is a colon carcinoma cell line that expresses P-glycoprotein and is multidrug resistant; SW620 is a drug sensitive colon carcinoma cell line. HCT15 is a colon carcinoma cell line that is resistant to topoisomerase inhibitors and SKBR3 is a breast carcinoma that is very sensitive to topoisomerase inhibitors.

HCT15 / SKBR3 = test: SRB cytotoxicity ratio HCT15/SKBR3 (topoisomerase resistance); assay type: cell-based, human; conditions: 2880 min
[1] = system: panel of >20 human tumor cell lines; test: In vitro tumor panel evaluation, Sulforhodamine B (SRB) cytotoxicity assay; assay type: cell-based; conditions: for IC50: Homo sapiens
[2] = system: DDP (Cisplatin resistant ovarian carcinoma cell line) / S (A2780); test: SRB cytotoxicity ratio DDP/S (cisplatin resistance); assay type: cell-based, human; conditions: 2880 min
MIP / SW620 = test: SRB cytotoxicity ratio MIP/SW620 (MDR, P-glycoprotein resistance); assay type: cell-based, human; conditions: 2880 min
[3] = IC50 resistant / IC50 sensitive cell line, topoisomerase resistance
[4] = Mean IC50 value for all 20 cell lines, 48 hours
[5] = IC50 resistant / IC50 sensitive cell line, cisplatin resistance
[6] = human, ddp/s ovarian carcinoma cells
[7] = IC50 resistant / IC50 sensitive cell line, MDR (pglycoprotein) resistance
[8] = Mean IC50 value for all 20 cell lines, 48 hours, read-out: AVG IC50
[9] = least sensitive cell line, 48 hours, read-out: MAX IC50
[10] = most sensitive cell line, 48 hours, read-out: MIN IC50
[11] = least sensitive cell line, 48 hours
[12] = most sensitive cell line, 48 hours

CaCO2/CX1 IC50 ratio (CaCo2 / CX1)	Compound	HCT15/SKBR3 IC50 ratio (HCT15 / SKBR3; [3])	AVG IC50 [1, 4] [µg/mL]	DDP/S IC50 ratio [2, 5]	HCT15/SKBR3 IC50 ratio (HCT15 / SKBR3; human, hct15/skbr3 cells)	IC50 ([1]; 48 h, read-out: AVG IC50) [µg/mL]	IC50 ([1]; 48 h, read-out: MAX IC50) [µg/mL]	IC50 ([1]; 48 h, read-out: MIN IC50) [µg/mL]	DDP/S IC50 ratio [2, 6]	MIP/SW620 IC50 ratio (MIP / SW620; [7])	IC50 [1, 8] [µg/mL]	IC50 [1, 9] [µg/mL]	IC50 [1, 10] [µg/mL]	MIP/SW620 IC50 ratio (MIP / SW620; human, mip/sw620 cells)	MAX IC50 [1, 11] [µg/mL]	MIN IC50 [1, 12] [µg/mL]
8.3	7-(Cyclohexylamino)-1,3,4,8-tetrahydro-5-methyl-8-oxo-pyrrolo[4,3,2-de]quinolinium trifluoroacetate [Example 41]	737.0	6.5	1.8												
	O=C1CC2SC3CC2(C=C1Br)C1=C(N3)C(=O)c2[nH]cc3c2C1=NCC3 (centres unmarked) [Example 9, discorhabdin A]								1.4							
0.25	C[N+]1=C2C(Cl)=C(N)C(=O)c3[nH]cc(c32)CC1 [Example 10, 7-Amino-6-chloro-1,3,4,8-tetrahydro-5-methyl-8-oxo-pyrrolo[4,3,2-de]quinolinium trifluoroacetate]	1.5								0.7	5.1	10	1.29			
0.7	C[N+]1=C2C(Br)=C(N)C(=O)c3[nH]c(Br)c(c32)CC1 [Example 13, 7-Amino-2,6-dibromo-1,3,4,8-tetrahydro-5-methyl-8-oxo-pyrrolo[4,3,2-de]quinolinium trifluoroacetate]	1.7		1.1						0.9	2.4	7.71	0.4			
0.8	C[N+]1=C2C=C(N)C(=O)c3c2c(cn3Cc2cccc(Cl)c2)CC1 [Example 21, 7-Amino-1-[(3-chlorophenyl]methyl]-1,3,4,8-tetrahydro-5-methyl-8-oxo-pyrrolo[4,3,2-de]quinolinium trifluoroacetate]	7.1		1.5						7.0	1.4	4.47	0.28			
1.0	COc1cccc(Cn2cc3c4c2C(=O)C(N)=CC4=[N+](C)CC3)c1 [Example 23, 7-Amino-1,3,4,8-tetrahydro-1-[(3-methoxyphenyl)methyl]-5-methyl-8-oxo-pyrrolo[4,3,2-de]quinolinium trifluoroacetate]	3.8		1.2						8.6	2.1	4.2	0.45			
7.3	COC(=O)CCNC1=CC2=[N+](C)CCc3cn(Cc4ccccc4)c(c32)C1=O [Example 25, 1,3,4,8-tetrahydro-7-[(3-methoxy-3-oxopropyl)amino]-5-methyl-8-oxo-1-(phenylmethyl)pyrrolo[4,3,2-de]quinolinium trifluoroacetate]	23.5		6.1							13	50	1.32			
15.1	COC(=O)CCNC1=CC2=[N+](C)CCc3cn(CCC(=O)OC)c(c32)C1=O [Example 27, 1,3,4,8-Tetrahydro-1-(3-methoxy-3-oxopropyl)-7-[7-[(3-methoxy-3-oxopropyl)amino]-5-methyl-8-oxo-pyrrolo[4,3,2-de]quinolinium trifluoroacetate]	288.0		5.1							15	50	0.17			
3.6	CNC1=CC2=[N+](C)CCc3cn(C)c(c32)C1=O [Example 30, 1,3,4,8-Tetrahydro-1,5-dimethyl-7-(methylamino)-8-oxo-pyrrolo[4,3,2-de]quinolinium trifluoroacetate]	12.7		1.1						65.8	4.5	25.9	0.41			
0.6	C=CC[N+]1=C2C=C(N)C(=O)c3c2c(cn3C)CC1 [Example 31, 7-Amino-1,3,4,8-tetrahydro-1-methyl-8-oxo-5-(2-propenyl)[4,3,2-de]quinolinium trifluoroacetate]	2.7		1.2						8.0	1.7	2.59	0.34			
1.3	CNC1=CC2=[N+](C)CCc3c[nH]c(c32)C1=O [Example 35, 1,3,4,8-Tetrahydro-5-methyl-7-(methylamino)-8-oxo-pyrrolo[4,3,2-de]quinolinium trifluoroacetate]	9.1		1.0						20.3	5.7	24.4	1.2			
4.8	CCCCCCCCN(CCCCCCCC)C1=CC2=[N+](C)CCc3c[nH]c(c32)C1=O [Example 39, 1,3,4,8-Tetrahydro-5-methyl-7-(dioctylamino)-8-oxo-pyrrolo[4,3,2-de]quinolinium trifluoroacetate]	122.0		1.7						9.0	0.8	2.71	0.19			
8.3	CC(C)NC1=CC2=[N+](C)CCc3c[nH]c(c32)C1=O.O=C([O-])C(F)(F)F [Example 40, 1,3,4,8-Tetrahydro-5-methyl-7-[(2-methylethyl)amino]-8-oxo-pyrrolo[4,3,2-de]quinolinium trifluoroacetate]	102.0	5.8	1.3											50	0.25
19.8	C[N+]1=C2C=C(NCc3ccoc3)C(=O)c3[nH]cc(c32)CC1.O=C([O-])C(F)(F)F [Example 43, 7-[(3-Furanylmethyl)amino]-1,3,4,8-tetrahydro-5-methyl-8-oxo-pyrrolo[4,3,2-de]quinolinium trifluoroacetate]	78.5	6.4	1.6						90.8					36.3	0.27
	C[N+]1=C2C=C(NCc3ccc(C(=O)O)cc3)C(=O)c3[nH]cc(c32)CC1 [Example 45, 7-[[(4-Carboxylphenyl)methyl]amino]-1,3,4,8-tetrahydro-5-methyl-8-oxo-pyrrolo[4,3,2-de]quinolinium trifluoroacetate]	1.6		1.2						1.2	33	50	8.99			
38.0	COc1ccc(CNC2=CC3=[N+](C)CCc4c[nH]c(c43)C2=O)cc1 [Example 48, 1,3,4,8-Tetrahydro-7-[[(4-methoxyphenyl)methyl]amino]-5-methyl-8-oxo-pyrrolo[4,3,2-de]quinolinium trifluoroacetate]	2090.0		11.0							7.7	50	0.02			
	Cn1cc2c3c1C(=O)C(=O)C=C3NCC2.O=C(O)C(F)(F)F [Example 51, 1,3,4,5-Tetrahydro-1-methyl-pyrrolo[4,3,2-de]quinoline-7,8-dione trifluoroacetate]										48	50	35.6			
4.2	Cc1[nH]c2c(c1C)C1=[N+](C)CCc3c[nH]c(c31)C2=O [Example 54, 3,5,6,7-Tetrahydro-1,8,9-trimethyl-6-oxo-2M-dipyrrolo[4,3,2-de:2',3'-h]quinolinium trifluoroacetate]	3.9		1.2							18	50	2.26			

Compound	CaCO2/CX1 IC50 ratio (CaCo2 / CX1)	HCT15/SKBR3 IC50 ratio (HCT15 / SKBR3; [3])	AVG IC50 [1, 4] [µg/mL]	DDP/S IC50 ratio [2, 5]	HCT15/SKBR3 IC50 ratio (HCT15 / SKBR3; human, hct15/skbr3 cells)	IC50 ([1]; 48 h, read-out: AVG IC50) [µg/mL]	IC50 ([1]; 48 h, read-out: MAX IC50) [µg/mL]	IC50 ([1]; 48 h, read-out: MIN IC50) [µg/mL]	DDP/S IC50 ratio [2, 6]	MIP/SW620 IC50 ratio (MIP / SW620; [7])	IC50 [1, 8] [µg/mL]	IC50 [1, 9] [µg/mL]	IC50 [1, 10] [µg/mL]	MIP/SW620 IC50 ratio (MIP / SW620; human, mip/sw620 cells)	MAX IC50 [1, 11] [µg/mL]	MIN IC50 [1, 12] [µg/mL]
CC(CCC(C)NC1=CC2=[N+](C)CCc3c[nH]c(c32)C1=O)NC1=CC2=[N+](C)CCc3c[nH]c(c32)C1=O (racemic) [Example 57, 7,7'-(1,4-Dimethyl-1,4-butanediyldiimino)-bis[1,3,4,8-tetrahydro-5-methyl-8-oxo-pyrrolo[4,3,2-de]quinolinium trifluoroacetate]	100.8				32.1	13	50	0.43	1.8							
Cn1cc2c3c1C(=O)C(N)=C(Br)C3=NCC2 [Example 14, 7-Amino-6-bromo-3,4-dihydro-1-methyl-8-oxo-pyrrolo [4,3,2-de]quinolin-8 (1H) -one trifluoroacetate]	0.8				2.1				1.2		2.3	3.54	0.84	1.4		
Cn1cc2c3c1C(=O)C(N)=CC3=[N+](C)CC2 [Example 29, 7-Amino-1,3,4,8-tetrahydro-1,5-dimethyl-8-oxo-pyrrolo[4,3,2-de] quinolinium trifluoroacetate]	2.9				1.8	2.6	5.7	1.03						1.8		
Cn1cc2c3c1C(=O)C(N)=CC3=[N+](Cc1ccccc1)CC2 [Example 32, 7-Amino-1,3,4,8-tetrahydro-1-methyl-8-oxo-5-(phenylmethyl)-pyrrolo[4,3,2-de]quinolinium trifluoroacetate]	1.8				3.5	2.1	10	0.37						0.9		
